Results published in patent publication US20070004660A1, “Synergistic Modulation of Flt3 Kinase Using Alkylquinolines and Alkylquinazolines” (priority 2005, published 2007).

Key:
MV4-11 cells = assay: Inhibition of MV4-11 cell proliferation (CellTiterGlo, 72 h); type: cell-based; settings: Homo sapiens; 72 h growth inhibition; uncertainty ±20%
[1] = target: T1, isolated kinase domain of the human FLT3 receptor (a.a. 571-993) (Homo sapiens, UniProt P36888); assay: FLT3 fluorescence polarization kinase assay; type: biochemical; settings: 150 uM ATP; uncertainty ±10%
T1 construct: human FLT3 receptor (a.a. 571-993)
T1 sequence (P36888 571-993): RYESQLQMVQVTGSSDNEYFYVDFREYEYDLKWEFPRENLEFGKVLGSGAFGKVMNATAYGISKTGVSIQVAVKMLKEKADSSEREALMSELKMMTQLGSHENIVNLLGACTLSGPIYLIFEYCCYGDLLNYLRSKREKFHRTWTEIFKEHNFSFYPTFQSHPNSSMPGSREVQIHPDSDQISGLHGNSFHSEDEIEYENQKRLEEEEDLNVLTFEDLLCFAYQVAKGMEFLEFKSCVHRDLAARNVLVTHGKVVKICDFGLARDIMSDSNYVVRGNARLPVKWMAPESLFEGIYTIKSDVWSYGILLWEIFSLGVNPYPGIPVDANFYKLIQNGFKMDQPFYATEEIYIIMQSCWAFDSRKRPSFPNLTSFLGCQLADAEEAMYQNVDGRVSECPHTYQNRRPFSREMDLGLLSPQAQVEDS

Structure (SMILES)	IC50 (MV4-11 cells) [nM]	IC50 [1] [nM]
CC(C)Oc1ccc(NC(=O)N2CCC(c3ncnc4ccc(C#CCN5CCOCC5)cc34)CC2)cc1 [Example 15, 4-[6-(3-Morpholin-4-yl-prop-1-ynyl)-quinazolin-4-yl]-piperidine-1-carboxylic acid (4-isopropoxy-phenyl)-amide]	30	46
CCN1CCN(c2ccc3c(C4CCN(C(=O)Nc5ccc(N6CCOCC6)cc5)CC4)ncnc3c2)CC1 [Example 136, 4-[7-(4-Ethyl-piperazin-1-yl)-quinazolin-4-yl]-piperidine-1-carboxylic acid (4-morpholin-4-yl-phenyl)-amide]	163	25
CC(C)c1ccc(NC(=O)CN2CCC(c3ncnc4ccccc34)CC2)cc1 [Example 16, N-(4-Isopropyl-phenyl)-2-(4-quinazolin-4-yl-piperidin-1-yl)-acetamide]	559	56
